Laboratory results reported in patent publication EP1884243A1, “Use of an antipsychotic drug for the treatment of ALS-associated cachexia” (Charité - Universitätsmedizin Berlin, priority 2006, dated 2008).

Tests used:
ALS = ALS patients; background statement on the approved therapy; cited from earlier work
ALS-related cachexia [1] = assay: Study 3: olanzapine treatment of ALS-related cachexia, case report of a patient; format: in vivo, human being
Source text: A patient is reported, who developed a slowly-progressive motor neuron syndrome. The patient fulfilled the criteria for ALS. The disease began with atrophy and weakness of the proximal left arm followed by weakness of the distal muscles of left upper limb. In the course of 2 years after onset they experienced progressive atrophy and flaccid paresis of the opposite limb with only residual functions in handling articles. After 3 years the disorder progressed to the point that was complete loss of manual functions. The patient developed hypoventilation resulting in ventilatory support using non-invasive intermittent positive pressure ventilation (NIPPV). The patient was without dysphagia.
During the course of 9 months, the patient developed an unintended weight loss of 14.5 kg of body weight. The weight loss was associated with fatigue. The patient suffered from diminished appetite. The body mass index (BMI) reduced from 23.0 kg/ m^2 to 17.5 kg/m^2. Most of the wasting occurred within 5 month before intervention (loss of 8.5 kg of body weight; total body weight reduced from 55 kg to 46.5 kg). For the pharmacological intervention of ALS-related cachexia the medication with olanzapine was initiated. Olanzapine was given orally in the dosage of 5 mg per day. Olanzapine was administered once daily using one tablet of olanzapine 5 mg in the evening. After 4 weeks of treatment, olanzapine dosage was increased to 10 mg per day. Olanzapine was administered twice daily using one tablet of olanzapine 5 mg each in the morning and in the evening. The medication attenuated ALS-related cachexia and wasting. After 2 month of olanzapine treatment the body weight was stabilized (45.5 kg). The loss of BMI was also attenuated (17.1 kg/m^2). The nutritional state and the general strength improved. […] The olanzapine treatment was ongoing. Based on reports on olanzapine-related weight gain in patients with psychosis, the target dose of olanzapine for the treatment of ALS-cachexia is 20 mg per day. In the case of persistent ALS-related weight loss, the treatment with 30 mg olanzapine per day is recommended.

ALS-related cachexia [2] = assay: Study 2: olanzapine treatment of ALS-related cachexia, case report of a patient; format: in vivo, human being
Source text: A patient is reported, who developed a slowly-progressive motor neuron syndrome. The patient fulfilled the criteria for ALS. The disease began with atrophy and weakness of the small muscles of the right hand followed by weakness of the proximal muscles of right arm and the opposite upper limb. In the course of 4 years after onset they experienced progressive atrophy and flaccid paresis of the lower limbs resulting in a gait disorder. […] The patient was without dysphagia.
During the course of 12 months, the patient developed an unintended weight loss of 8.5 kg of body weight. The weight loss was associated with fatigue. The patient suffered from diminished appetite. The body mass index (BMI) reduced from 23.3 kg/ m^2 to 20.5 kg/m^2. At the same time the ALS functional rating scale (ALS-FRS revised) changed from 43 to 39 units. Most of the wasting occurred within 6 month before intervention (loss of 6.5 kg of body weight; total body weight of 61.5 kg). For the pharmacological intervention of ALS-related cachexia the medication with olanzapine was initiated. Olanzapine was given orally in the dosage of 5 mg per day. Olanzapine was administered once daily using one tablet of olanzapine 5 mg in the evening. The medication attenuated ALS-related cachexia and wasting. After 2 month of olanzapine treatment the body weight was stabilized (61.0 kg). The loss of BMI was also attenuated (20.3 kg/m^2). […] Residual motor functions were mobilized. […] At the time of this report, the olanzapine dosage was increased to 10 mg per day. Olanzapine was administered twice daily using one tablet of olanzapine 5 mg each in the morning and in the evening. […] The olanzapine treatment was ongoing. Based on reports on olanzapine-related weight gain in patients with psychosis, the target dose of olanzapine for the treatment of ALS-cachexia is 20 mg per day. In the case of persistent ALS-related weight loss, the treatment with 30 mg olanzapine per day is recommended.

ALS-related cachexia [3] = assay: Study: olanzapine treatment of ALS-related cachexia, case report of a patient; format: in vivo, human being
Source text: A patient is reported, who developed a slowly-progressive motor neuron syndrome. The patient fulfilled the criteria for definite ALS. The disease began with atrophy and weakness of the small muscles of the left hand followed by weakness of the right distal arm. In the course of 2 years after onset they experienced slowly progressive atrophy and flaccid paresis of the upper limbs with only residual functions in handling articles. After 4 years they developed a gait disorder which progressed to the point were they required a walking-aid. […] The patient was without dysphagia.
During the course of 10 months, the patient developed an unintended weight loss of 12 kg of body weight resulting in fatigue and reduced mobility. The patient suffered from diminished appetite. The body mass index (BMI) was 17.2 kg/m^2 and fulfilled the diagnostic criteria of cachexia. For the pharmacological intervention of ALS-related cachexia the medication with olanzapine was initiated. Olanzapine was given orally in the dosage of 5 mg per day. Olanzapine was administered twice daily using one tablet of olanzapine 2.5 mg each in the morning and in the evening. […] The BMI increased to 18,8 kg/m^2. […] Residual motor functions were mobilized. […] At the time of this report, the olanzapine treatment was ongoing.

Row | Structure (SMILES) | prolonging an ALS-patient's lifetime (ALS) | body weight (ALS-related cachexia [1]; after 2 month of olanzapine (5 mg per day, after 4 weeks 10 mg per day, orally), 46.5 kg before intervention) [kg] | BMI (ALS-related cachexia [1]; after 2 month of olanzapine (5 mg per day, after 4 weeks 10 mg per day, orally), BMI 17.5 kg/m^2 before intervention) [kg/m^2] | adverse events (ALS-related cachexia [1]; olanzapine orally 5 mg per day, after 4 weeks 10 mg per day) | BMI (ALS-related cachexia [2]; after 2 month of olanzapine 5 mg per day orally, BMI 20.5 kg/m^2 before intervention) [kg/m^2] | body weight (ALS-related cachexia [2]; after 2 month of olanzapine 5 mg per day orally, total body weight 61.5 kg before intervention) [kg] | adverse events (ALS-related cachexia [2]; olanzapine orally 5 mg per day, later increased to 10 mg per day) | adverse events (ALS-related cachexia [3]; olanzapine orally 5 mg per day) | weight gain (ALS-related cachexia [3]; olanzapine orally 5 mg per day (2.5 mg twice daily), within the course of 8 weeks, patient, BMI 17.2 kg/m^2 before treatment) [kg] | BMI (ALS-related cachexia [3]; olanzapine orally 5 mg per day, after treatment (8 weeks), BMI before treatment 17.2 kg/m^2)
1 | Nc1nc2ccc(OC(F)(F)F)cc2s1 [Riluzole] | 1.5-2.5 months | – | – | – | – | – | – | – | – | –
2 | Cc1cc2c(s1)Nc1ccccc1N=C2N1CCN(C)CC1 [olanzapine] | – | 45.5 | 17.1 | not associated with adverse events | 20.3 | 61.0 | not associated with adverse events | not associated with adverse events | 6 | 18,8 kg/m^2
